2 molecules from patent publication US20050019850A1, “Method for identifying fungicidally active compounds based on guanylate kinases” (priority 2003, published 2005) can be followed below.

The experiment concerns the target U. maydis guanylate kinase (Mycosarcoma maydis, UniProt A0A0D1DZ04). Briefly: Determination of the KM value of guanylate kinase for its substrates (Lineweaver/Burk). The conditions noted are these: read-out: KM value; FIG. 3, Lineweaver/Burk representation; substrate of guanylate kinase. It counts as biochemical, Ustilago maydis.

Sequence of U. maydis guanylate kinase (A0A0D1DZ04 118-213, added parts left off): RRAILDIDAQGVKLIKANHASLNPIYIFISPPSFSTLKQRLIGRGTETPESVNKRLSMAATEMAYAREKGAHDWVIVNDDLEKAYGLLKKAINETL
Description: Lineweaver/Burk representation of the data: 1/Vo=1/Vmax+1/S×(KM/Vmax), wherein Vo is the initial reaction rate, Vmax the maximum conversion rate possible and S the substrate concentration. Vmax and KM can then be read as the intercepts on the horizontal and the vertical axes 1/Vmax and 1/KM, respectively.
Here, pyruvate kinase converts phosphoenolpyruvate into pyruvate, which is then utilised by lactate dehydrogenase for oxidizing NADH to give NAD. The NAD concentration, which increases owing to the coupled reaction, or the NADH concentration, which decreases owing to the coupled reaction, can be measured photospectrometrically by absorption or fluorescence measurement (absorption drops at 340 nm, fluorescence drops at 340 nm (emission at 465 nm)).

Broadly, the Km is the concentration of substrate that gives half-maximal velocity. Consider `Nc1ncnc2c1ncn2[C@@H]1O[C@H](COP(=O)(O)OP(=O)(O)OP(=O)(O)O)[C@@H](O)[C@H]1O` [ATP], for which the Km is 100 µM.

Regarding `Nc1nc2c(ncn2[C@@H]2O[C@H](COP(=O)(O)O)[C@@H](O)[C@H]2O)c(=O)[nH]1` [GMP], the Michaelis-Menten constant (Km) amounted to 40 µM.
